B1: FasL (protein)
chain: PSPPPEKKELRKVAHLTGKSNSRSMPLEWEDTYGIVLLSGVKYKKGGLVINETGLYFVYSKVYFRGQSCNNLPLSHKVYMRNSKYPQDLVMMEGKMMSYCTTGQMWARSSYLGAVFNLTSADHLYVNVSELSLVNFEESQTFFGLYKL
B2: TRAIL: recombinant human TNF-related apoptosis-inducing ligand (protein, UniProt P50591 1-281, looked up)
Tumor necrosis factor ligand …: MAMMEVQGGPSLGQTCVLIVIFTVLLQSLCVAVTYVYFTNELKQMQDKYSKSGIACFLKEDDSYWDPNDEESMNSPCWQVKWQLRQLVRKMILRTSEETISTVQEKQQNISPLVRERGPQRVAAHITGTRGRSNTLSSPNSKNEKALGRKINSWESSRSGHSFLSNLHLRNGELVIHEKGFYYIYSQTYFRFQEEIKENTKNDKQMVQYIYKYTSYPDPILLMKSARNSCWSKDAEYGLYSIYQGGIFELKENDRIFVSVTNEHLIDMDHEASFFGAFLVG

Assays:
KMM-1-luc cells [1] = assay: luciferase-based cytotoxicity assay of siRNA-transfected tumour cells co-cultured with MILs; type: cell-based, human; settings: for T cell mediated cytotoxicity: co-culture with MILs, 10:1 E:T ratio; for viability impact of siRNA per se: viability setting, culture medium instead of T cells
Experimental: (§1) Gene knockdown in tumor cells was induced using reverse siRNA transfection with Lipofectamine RNAiMAX (Thermo Scientific). Briefly, 200 μL of 250 nM siRNA solution was added to each well of a 6-well plate. 4 μl of RNAiMAX transfection reagent was diluted in 196 μL of RPMI (Sigma-Aldrich) and incubated for 10 min at room temperature (RT). 400 μL of additional RPMI was added and 600 μL of RNAiMAX mix was given to the siRNA coated wells and incubated for 30 min at RT. 3.5×10^5 KMM-1 (WT or luc) cells were resuspended in 1.2 mL of antibiotic-free RPMI culture medium supplemented with 10% FCS, seeded in the siRNA-RNAiMAX containing wells and incubated for 48 h at 37° C., 5% CO2. Final siRNA concentration was 25 nM in all cases.
(§2) KMM-1-luc cells were reverse transfected with the desired siRNA sequences in white 96-well-plate (Perkin Elmer) and incubated for 48 h at 37° C., 5% CO2. At the same day of transfection MILs were thawn and treated with benzonase (too IU/mL) (Merck). Cell density was adjusted to 0.6×10^6 cells/mL in CLM supplemented with 3000 IU/mL rhuIL-2 (Novartis) for 48 h. IL-2 was depleted 24 h before the co-culture. Flu TC were thawn 6 h before co-culture. For the cytotoxicity setting, MILs, flu TC, the supernatant of activated MILs or rHuFasL were added to transfected tumor cells at desired E:T ratio/concentration, and incubated for 20 h at 37° C., 5% CO2. For the viability setting, only CLM was added to the tumor cells. After co-culture, supernatant was removed, remaining tumor cells were lysed using 40 μL/well of cell lysis buffer for 10 min. After tumor cell lysis, 60 μL/well of luciferase assay buffer was added and luciferase intensity was measured by using the Spark 20M plate reader (Tecan) with a counting time of 100 msec. Luciferase activities (relative luminescence units=RLUs) were either represented as raw luciferase values or as normalized data to scramble or unstimulated controls.

CAMK1D mRNA = CAMK1D mRNA knockdown by qPCR; type: cell-based, human; settings: KMM-1 cells, 48h after transfection, normalized to β-actin
Experimental: Gene expression was measured using end-point PCR. Briefly, total RNA was isolated from cell pellets using the RNeasy Mini kit (Qiagen) according to the manufacturer's guidelines. 1 μg of RNA was reverse transcribed to complementary DNA (cDNA) using the QuantiTect reverse transcription kit (Qiagen) according to the manufacturer's protocol. Synthesized cDNA was amplified using conventional PCR. PCR samples were set up in a 25 μL volume using 2×MyTaq HS Red Mix (Bioline), 500 nM of gene-specific primer mix and 100 ng of template cDNA. The PCR program was set as the following: 95° C. for 3 min, 35 cycles of 3 repetitive steps of denaturation (95° C. for 30 s), annealing (60° C. for 30 s) and extension (72° C. for 30 s), and a final step at 72° C. for 5 min. PCR products were run on a 2% agarose gel in TAE buffer using a gel electrophoresis system (Thermo Scientific) and DNA bands were visualized using UV light of myECL Imager (Thermo Scientific). Knockdown efficiency of siRNA sequences was measured by quantitative PCR (qPCR). For qPCR, 10 ng of template cDNA, 2× QuantiFast SYBR Green PCR mix (Qiagen) and 300 nM of gene-specific primer mix was used per 20 μL reaction and each sample was prepared in triplicates. Reactions were run using the QuantStudio 3 (Applied Biosystems). Expression of several genes was normalized to the expression of β-actin gene and the analysis was performed using comparative Ct method.
as §1, with “Final siRNA concentration was 25 nM in all cases.” left out

CAMK1D = CAMK1D protein knockdown by western blot; type: cell-based, human; settings: KMM-1 cells, 48h after transfection
Experimental: as §1
30 μg of protein lysates were denaturated in 4×NuPAGE LDS Sample Buffer (Thermo Scientific) containing 100% ß-mercaptoethanol (PAN) at 70° C. for 10 min. Samples were spun down and separated on NuPAGE 4-12% Bis-Tris Gels (Thermo Scientific) along with PageRuler Prestained Protein Ladder (Thermo Scientific) and run at 115-150 V for 90 min.
Proteins were transferred from the gel to a PVDF membrane (Millipore) using a semi-dry western blot method. The PVDF blotting membrane (Merck Millipore) was activated in 100% methanol (Merck Millipore) for 1 min and afterwards placed in Transfer Buffer (Thermo Science) until use. Blots were assembled from anode to cathode into the Pierce Power Blot cassette (Thermo Scientific) and run at 24 V for 10 min. Membranes were washed in ix TBS and then placed in blocking solution (5% BSA/0.05% TBST) for 2 h. […] The blots were incubated with the ECL Detection Reagent (Reagent A and Reagent B, 1:1, GE Healthcare) for 4 min and the chemiluminescence was detected with myECL Imager (Thermo Scientific).

[2] = molecular target: T1, recombinantly expressed CAMK1D protein kinase (Homo sapiens, UniProt Q8IU85); assay: radiometric protein kinase assay (33PanQinase Activity Assay) of CAMK1D kinase activity; type: biochemical; settings: 10 concentrations (1x10-05 M to 3x10-10 M), singlicate; read-out: IC50 of CAMK1D kinase inhibition
T1 construct: purchased ProQinase (Freiburg, Germany)
Experimental: QPP was identified as CAMK1D inhibitor in a radiometric protein kinase assay (PanQinase® Activity Assay) used for measuring the kinase activity of a recombinantly expressed CAMK1D protein kinase. All assays were performed with a BeckmanCoulter/SAGIAN™ Core System.

KMM-1-luc cells [3] = assay: blocking assay: CAMK1D inhibitor plus rHuFasL, luciferase-based cytotoxicity assay; type: cell-based, human; settings: KMM-1 multiple myeloma cells; rHuFasL 100 ng/mL, 20 h
Experimental: as §2, with “controls. For the experiments using the anti-Calmodulin (W7) (Tocris) inhibitor, 1×10^4 KMM-1-luc (scr or CAMK1D-transfected) cells/well were seeded in white 96 well plates (Perkin Elmer) in 100 μL of RPMI 10% FCS. […]” for “controls.”

Mel270 cells = assay: as above; type: cell-based, human; settings: Mel270 uveal melanoma cells; rHuFasL 100 ng/mL, 20 h
Experimental: as §2, with “controls. For the experiments using the anti-Calmodulin (W7) (Tocris) inhibitor, 1×10^4 KMM-1-luc (scr or CAMK1D-transfected) cells/well were seeded in white 96 well plates (Perkin Elmer) in 100 μL of RPMI 10% FCS. […]” for “controls.”

KMM-1-luc cells [4] = assay: blocking assay: CaM inhibitor (W7) with or without rHuFasL, luciferase-based cytotoxicity assay; type: cell-based, human
Experimental: as §2
For the experiments using the anti-Calmodulin (W7) (Tocris) inhibitor, 1×10^4 KMM-1-luc (scr or CAMK1D-transfected) cells/well were seeded in white 96 well plates (Perkin Elmer) in 100 μL of RPMI 10% FCS. The small molecule inhibitor was added at the indicated concentrations for 1 h at 37° C., before 100 ng/mL rHuFasL or medium control was added. DMSO treatment served as negative control. After 20 h stimulation, luciferase-based cytotoxicity assay was performed. For CAMK1D inhibition, 1×10^4 KMM-1-luc or 1×10^4 Mel270 cells/well were incubated overnight in a 96 well plate. OMX2001 was added at the indicated concentrations 1 h before rHuFasL stimulation (100 ng/mL) or medium control. DMSO treatment served as negative control. After 20h stimulation, luciferase-based cytotoxicity assay was performed.

KMM-1-luc cells [5] = assay: treatment of scr or siCAMK1D transfected cells with recombinant FasL, TRAIL or TNF, luciferase activity; type: cell-based, human; settings: siCAMK1D transfected KMM-1, 20h treatment
Experimental: as §2

Row | Molecule | T cell mediated cytotoxicity (KMM-1-luc cells [1]) | viability impact of siRNA per se (KMM-1-luc cells [1]) | CAMK1D expression at mRNA level (CAMK1D mRNA) | CAMK1D expression at protein level (CAMK1D) | further results
1 | s2: siRNA targeting hCAMK1D, CAAAUCACCUGUACUUGGU, Dharmacon D-004946-02, SEQ ID NO. 4 (listed as RNA, chemistry not given here) | increased T cell mediated cytotoxicity | no viability impact | significantly reduced CAMK1D expression | significantly reduced CAMK1D expression | 
2 | Cc1cc(Nc2nc(-c3ccccc3)nc3ccccc23)n[nH]1 [QPP, (5-Methyl-1H-pyrazol-3-yl)-(2-phenylquinazolin-4-yl)amine] |  |  |  |  | IC50 [2]: 2940 nM; tumour cell viability (luciferase intensity) after inhibitor plus recombinant FasL (KMM-1-luc cells [3]): induced a significant tumour cell viability; tumour cell viability (luciferase intensity) after inhibitor plus recombinant FasL (Mel270 cells): induced a significant tumour cell viability
3 | s3: siRNA targeting hCAMK1D, CCGAAAAUCUCUUGUACUA, Dharmacon D-004946-03, SEQ ID NO. 5 (listed as RNA, chemistry not given here) | increased T cell mediated cytotoxicity | no viability impact | significantly reduced CAMK1D expression | significantly reduced CAMK1D expression | 
4 | Cl.NCCCCCCNS(=O)(=O)c1cccc2c(Cl)cccc12 [W-7 hydrochloride] |  |  |  |  | effect on FasL induced tumour cell apoptosis (KMM-1-luc cells [4]; 5 μM, with rHuFasL): sharply recapitulated the effect of CAMK1D silencing; toxicity to KMM-1 cells (tumour cell survival by luciferase intensity) (KMM-1-luc cells [4]; 5 μM, without rHuFasL): not toxic; further increase of FasL-mediated tumour cell killing (KMM-1-luc cells [4]; combination of W-7 hydrochloride with CAMK1D silencing, after FasL exposure): 3 fold
5 | s1: siRNA targeting hCAMK1D, UGAAGUGUAUCCCUAAGAA, Dharmacon D-004946-01, SEQ ID NO. 3 (chemistry not given here) | increased T cell mediated cytotoxicity | no viability impact | significantly reduced CAMK1D expression | significantly reduced CAMK1D expression | 
6 | B1 |  |  |  |  | reduction of CAMK1D-deficient tumour cells after exposure (KMM-1-luc cells [5]): dramatically reduced
7 | B2 |  |  |  |  | reduction of CAMK1D-deficient tumour cells after exposure (KMM-1-luc cells [5]): to a much lesser degree

Reference: patent US20230228760A1, “INTRACELLULAR KINASE ASSOCIATED WITH RESISTANCE AGAINST T-CELL MEDIATED CYTOTOXICITY, AND USES THEREOF” (iOmx Therapeutics AG, priority 2020, published 2023)
